Consider 13 compounds from PubChem BioAssay (NCI).

The structures appear in SMILES notation.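 All cell lines were grown in 96-well plates and treated with compound for 48 hours. Abbreviation: GI50, concentration required for 50% inhibition of growth. TGI: total growth inhibition.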 Some results are limits rather than exact numbers.

Common to all, as to test: DTP human tumour cell line panel, 48 h
The subject of assay [1] is SK-MEL-5 melanoma.
The subject of assay [2] is COLO 205 colon.
Assay [3] has as its system HOP-92 NSCLC.
Assay [4] concerns SK-MEL-2 melanoma.
The subject of assay [5] is HCT-15 colon.
Assay [6] deals with RXF 393 renal.
Assay [7] deals with UACC-62 melanoma.
The subject of assay [8] is SN12C renal.
Assay [9] concerns OVCAR-4 ovarian.
Assay [10] has as its system CCRF-CEM leukemia.

In the case of `Cc1nn2c(/C=C3\C(=O)Nc4ccccc43)c(C)nc2s1`, the GI50 was 16.5 µM in assay [1]; 5.33 µM in assay [2]; 61 µM in assay [3]; 27.6 µM in [4]; 17.1 µM in [5]; 26.2 µM in assay [6]. For the same compound, the GI50 in assay [7] was 35.5 µM; in assay [8], above 100 µM; in assay [9] it was above 100 µM; in assay [10] it was 30.1 µM. The TGI is above 100 µM in assay [1]; 63.4 µM in [2]; above 100 µM in assay [3]; above 100 µM in assay [4]; above 100 µM in assay [5]; 87.6 µM in [6]. For the same compound, the total growth inhibition concentration (TGI) in assay [7], in assay [8], in assay [9] and in [10] was above 100 µM in each case.
Regarding `COc1cc(CNC(=O)CCSc2nc3ccccc3c(=O)n2Cc2cc(OC)c(OC)c(OC)c2)cc(OC)c1OC`, the GI50 was 2.85 µM in [1]; 5.32 µM in assay [2]; 5.7 µM in [3]; 2.82 µM in assay [4]; 2.47 µM in assay [5]; 5.31 µM in assay [6]. Moreover, the GI50 was 2.92 µM in [7], 8.1 µM in [8], 10.8 µM in [9] and 4.91 µM in assay [10]. Moreover, the concentration for total growth inhibition (TGI) is 13.7 µM in [1]; 23.2 µM in [2]; 23.9 µM in assay [3]; 8.14 µM in [4]; above 100 µM in assay [5]; 26 µM in assay [6]. For the same compound, the total growth inhibition concentration (TGI) was 20.6 µM in [7], above 100 µM in [8], 77.1 µM in [9] and above 100 µM in [10].
For `Cc1cc(Cl)ccc1NC(=O)NC(C)(C)COC(=O)Nc1cccc(Cl)c1`, the GI50 in assay [1] is 6.7 µM; in assay [2] it was 7.18 µM; in assay [3], 3.48 µM; in assay [4], 8.08 µM; in assay [5], 2.48 µM; in assay [6], 17.5 µM. The GI50 in assay [7] was 4.73 µM; in assay [8] it was 7.14 µM; in assay [9] it was 6.55 µM; in assay [10], 3.88 µM. The TGI was 25 µM in assay [1]; 20.2 µM in [2]; 26.4 µM in assay [3]; 34.1 µM in assay [4]; 13.1 µM in assay [5]; 78.6 µM in assay [6]. Besides, the TGI is above 100 µM in assay [7], above 100 µM in assay [8], 90.6 µM in assay [9] and 37.3 µM in assay [10].
Consider `COc1cccc2ccc3c(c12)C(=O)OC31CCc2c(C)cccc21` (stereo not given), for which the TGI was 19.5 µM in assay [1]; above 46.4 µM in [2]; 87.9 µM in [3]; above 46.4 µM in assay [4]; above 46.4 µM in assay [5]; 44.6 µM in assay [6]. The TGI in assay [7] is above 46.4 µM; in [8], above 46.4 µM; in assay [9] it was above 46.4 µM; in [10] it was above 100 µM.
Turning to `Cn1c(O)c(N=NC(N)=S)c2ccccc21`, the GI50 is 38.1 µM in assay [1]; 94.9 µM in assay [2]; 88 µM in [3]; above 100 µM in assay [4]; 44.6 µM in assay [5]; 32 µM in assay [6]. For the same compound, the GI50 was above 100 µM in assay [7], above 100 µM in [8], 82.1 µM in assay [9] and 62.1 µM in [10]. The TGI in assay [1], in assay [2], in [3], in assay [4], in assay [5] and in [6] was above 100 µM each time. The concentration for total growth inhibition (TGI) in assay [7], in assay [8], in [9] and in assay [10] was above 100 µM in each case.
For `C[C@@H](c1ccccc1)N(CC#N)C1CCC[C@H]1O` (stereo not given in full), the TGI in [1], in [2], in assay [3], in assay [4], in [5] and in [6] was above 100 µM throughout. The TGI in [7], in assay [8], in assay [9] and in [10] was above 100 µM each time.
For the compound `O=C(c1ccccc1)c1ccccc1C(=O)c1ccccc1`, the GI50 in [1] was 22.5 µM; in assay [2], 79.5 µM; in assay [3], 16.4 µM; in assay [4] it was 58.6 µM; in assay [5] it was 50 µM; in [6] it was 47.8 µM. The GI50 was 29.7 µM in [7], above 100 µM in assay [8], 36.7 µM in assay [9] and 42.9 µM in assay [10]. The TGI in [1] was 67.1 µM; in assay [2], above 100 µM; in [3], 99.4 µM; in assay [4] it was above 100 µM; in [5] it was above 100 µM; in assay [6], above 100 µM. The TGI in assay [7], in assay [8], in assay [9] and in assay [10] was above 100 µM throughout.
Consider `C(#Cc1ccccc1C#Cc1ccccn1)c1ccccn1`, for which the GI50 in [1] was 15.5 µM; in assay [2], 16.9 µM; in assay [3], 1.96 µM; in [4], 18.4 µM; in assay [5] it was 11.2 µM; in assay [6], 7.71 µM. Besides, the GI50 was 14.7 µM in [7], 18.1 µM in assay [8], 38 µM in [9] and 13.8 µM in assay [10]. The TGI in [1] turned out to be 30.9 µM; in [2], 46.4 µM; in assay [3] it was 12.2 µM; in assay [4], 36 µM; in assay [5], 25 µM; in [6], 24.4 µM. Further, the total growth inhibition concentration (TGI) in assay [7] was 28.6 µM; in assay [8] it was 35.1 µM; in assay [9] it was above 100 µM; in assay [10] it was 38.6 µM.
Regarding `Cc1ccc(S(=O)(=O)c2ccsc2N)cc1`, the GI50 in assay [1] was 66 µM; in [2], above 100 µM; in assay [3], 73.9 µM; in assay [4] it was above 100 µM; in assay [5] it was above 100 µM; in assay [6], 63.9 µM. Moreover, the GI50 in [7] was above 100 µM; in assay [8], above 100 µM; in assay [9], 58.3 µM; in assay [10] it was above 100 µM. For the same compound, the TGI in [1], in assay [2], in [3], in assay [4], in assay [5] and in [6] was above 100 µM throughout. The TGI in assay [7], in [8], in assay [9] and in assay [10] was above 100 µM each time.
Take `CC(=O)Nc1cc2cc(NS(=O)(=O)c3cc(C(F)(F)F)cc(C(F)(F)F)c3)ccc2oc1=O`: the total growth inhibition concentration (TGI) in assay [1] was above 100 µM; in assay [2], above 100 µM; in assay [3] it was above 100 µM; in assay [4] it was above 100 µM; in [5], above 100 µM; in assay [6], 0.811 µM. Besides, the TGI in assay [7], in assay [8], in [9] and in [10] was above 100 µM in each case.
As for `Cc1[nH]n(-c2ccccc2)c(=O)c1C(=O)c1ccccc1`, the GI50 in assay [1] is above 25 µM; in [2], above 25 µM; in assay [3] it was above 10.6 µM; in assay [4], above 25 µM; in assay [5], above 23.9 µM; in assay [6], above 25 µM. Also, the GI50 in assay [7], in assay [8], in assay [9] and in assay [10] was above 25 µM in each case. Also, the total growth inhibition concentration (TGI) in assay [1], in assay [2], in [3], in assay [4], in [5] and in [6] was above 25 µM throughout. For the same compound, the TGI in assay [7], in assay [8], in assay [9] and in assay [10] was above 25 µM throughout.
Regarding `S=c1[nH]nc(SCc2ccccc2Cl)c2[nH]cnc12`, the TGI in assay [1], in assay [2], in assay [3], in assay [4], in assay [5] and in assay [6] was above 100 µM throughout. Besides, the TGI in assay [7], in assay [8], in [9] and in assay [10] was above 100 µM throughout.
With `COc1cc(/C=C/c2cc(/C=C/c3ccc(O)c(OC)c3)[nH]c(=O)n2)ccc1O`, the GI50 in [1] was 3.7 µM; in assay [2], 2.03 µM; in [3] it was 2.28 µM; in [4], 2.88 µM; in [5], 5.43 µM; in assay [6], 2.24 µM. Besides, the GI50 in assay [7] was 3.39 µM; in [8], 4.38 µM; in [9] it was 2.46 µM; in assay [10] it was 2.1 µM. For the same compound, the TGI in assay [1] is 36.1 µM; in assay [2], 4.03 µM; in [3], 9.24 µM; in assay [4], 6.7 µM; in assay [5], above 100 µM; in assay [6] it was 4.93 µM. In addition, the total growth inhibition concentration (TGI) was 43.2 µM in [7], above 100 µM in assay [8], 16.8 µM in assay [9] and 6.22 µM in [10].

Usually GI50 stands for the concentration that inhibits growth by half. A word on the TGI: it is the concentration at which net growth stops. A low value points to greater sensitivity of the cells.
